Experimental data as given in patent US20240174662A1, “SMALL MOLECULE INHIBITORS OF SALT INDUCIBLE KINASES” (Janssen Biotech, Inc., priority 2021, published 2024).

Molecular target: SIK2 (Homo sapiens (Human), UniProt Q9H0K1)
Assay: SIK2 Enzymatic Assay Version 2 (High ATP)
Type: biochemical
Details: 3 mM ATP and 200 μM HDAC5tide final, ADP-Glo Max luminescence
Method in brief: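 Luminescent ADP-Glo Max read-out: depletion reagent 2 h, then detection reagent 1 h. Before the reaction, compounds were incubated 30 min with enzyme added at 6 nM (twice final concentration), with all steps at room temperature.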

Chain of SIK2 (Q9H0K1 whole entry, species assumed): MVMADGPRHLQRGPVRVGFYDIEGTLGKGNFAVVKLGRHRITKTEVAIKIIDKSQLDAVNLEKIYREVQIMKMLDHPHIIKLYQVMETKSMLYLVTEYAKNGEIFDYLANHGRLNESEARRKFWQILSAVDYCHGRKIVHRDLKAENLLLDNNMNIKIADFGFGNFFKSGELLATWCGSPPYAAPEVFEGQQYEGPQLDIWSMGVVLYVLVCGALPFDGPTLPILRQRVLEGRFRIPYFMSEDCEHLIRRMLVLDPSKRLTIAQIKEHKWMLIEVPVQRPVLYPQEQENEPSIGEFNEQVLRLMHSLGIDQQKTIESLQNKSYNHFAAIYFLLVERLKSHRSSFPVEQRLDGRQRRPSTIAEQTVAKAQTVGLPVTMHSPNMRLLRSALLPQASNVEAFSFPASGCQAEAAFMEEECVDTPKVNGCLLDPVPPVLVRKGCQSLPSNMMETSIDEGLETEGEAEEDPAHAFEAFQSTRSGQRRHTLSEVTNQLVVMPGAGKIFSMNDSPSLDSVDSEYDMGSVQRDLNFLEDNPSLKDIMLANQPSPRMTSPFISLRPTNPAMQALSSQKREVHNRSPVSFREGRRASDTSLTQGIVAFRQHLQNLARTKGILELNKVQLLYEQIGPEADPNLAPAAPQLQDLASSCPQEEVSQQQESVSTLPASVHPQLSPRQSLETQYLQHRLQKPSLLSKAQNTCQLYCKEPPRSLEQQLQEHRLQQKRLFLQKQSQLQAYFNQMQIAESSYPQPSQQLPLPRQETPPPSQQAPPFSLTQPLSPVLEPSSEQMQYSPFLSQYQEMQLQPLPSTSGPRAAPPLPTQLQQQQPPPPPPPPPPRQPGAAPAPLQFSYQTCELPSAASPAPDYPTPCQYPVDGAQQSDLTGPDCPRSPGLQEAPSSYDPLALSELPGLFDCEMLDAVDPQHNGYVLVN

Row | SMILES | IC50
1 | Cn1ncc(OC[C@H]2CCN2Cc2ccccc2)c1-c1ccn2nc(NC(=O)C3CC3)cc2c1 [Example 429, N-[5-[4-[[(2R)-1-benzylazetidin-2-yl]methoxy]-2-methyl-pyrazol-3-yl]pyrazolo[1,5-a]pyridin-2-yl]cyclopropanecarboxamide] | 99.9 nM
2 | Cn1ncc(OC[C@H]2CCN2CC2COC2)c1-c1ccn2nc(NC(=O)C3CC3)cc2c1 [Example 433, N-[5-[2-methyl-4-[[(2R)-1-(oxetan-3-ylmethyl)azetidin-2-yl]methoxy]pyrazol-3-yl]pyrazolo[1,5-a]pyridin-2-yl]cyclopropanecarboxamide] | 122 nM
3 | CNC1(COc2cnn(C)c2-c2ccn3nc(NC(=O)C4CC4)cc3c2)CC1 [Example 434, N-[5-[2-methyl-4-[[1-(methylamino)cyclopropyl]methoxy]pyrazol-3-yl]pyrazolo[1,5-a]pyridin-2-yl]cyclopropanecarboxamide] | 101 nM
4 | COC(C)(C)CN1CC[C@@H]1COc1cnn(C)c1-c1ccn2nc(NC(=O)C3CC3)cc2c1 [Example 435, N-[5-[4-[[(2R)-1-(2-methoxy-2-methyl-propyl)azetidin-2-yl]methoxy]-2-methyl-pyrazol-3-yl]pyrazolo[1,5-a]pyridin-2-yl]cyclopropanecarboxamide] | 79.7 nM
5 | C[C@H]1CN(C)[C@H]1COc1cnn(C)c1-c1ccn2nc(NC(=O)C3CC3)cc2c1 [Example 437, N-[5-[4-[[(2R,3S)-1,3-dimethylazetidin-2-yl]methoxy]-2-methyl-pyrazol-3-yl]pyrazolo[1,5-a]pyridin-2-yl]cyclopropanecarboxamide] | 85.6 nM
6 | Cc1cc(Nc2cc3cc(-c4c(OC[C@H]5C[C@H](O)C5)cnn4C)ccn3n2)nc(C)n1 [Example 438, 3-[[5-[2-[(2,6-dimethylpyrimidin-4-yl)amino]pyrazolo[1,5-a]pyridin-5-yl]-1-methyl-pyrazol-4-yl]oxymethyl]cyclobutanol] | 88 nM
7 | Cc1cc(Nc2cc3cc(-c4c(O[C@H]5CCN[C@@H]5C)cnn4C)ccn3n2)nc(C)n1 [Example 442, N-(2,6-dimethylpyrimidin-4-yl)-5-[2-methyl-4-[(2R,3S)-2-methylpyrrolidin-3-yl]oxy-pyrazol-3-yl]pyrazolo[1,5-a]pyridin-2-amine] | 106 nM
8 | CN1CC[C@H](Oc2cnn(C)c2-c2ccn3nc(Nc4cccnn4)cc3c2)C1 [Example 449, 5-[2-methyl-4-[(3S)-1-methylpyrrolidin-3-yl]oxy-pyrazol-3-yl]-N-pyridazin-3-yl-pyrazolo[1,5-a]pyridin-2-amine] | 89.5 nM
9 | CN1CC[C@H](Oc2cnn(C)c2-c2ccn3nc(Nc4cnccn4)cc3c2)C1 [Example 450, 5-[2-methyl-4-[(3S)-1-methylpyrrolidin-3-yl]oxy-pyrazol-3-yl]-N-pyrazin-2-yl-pyrazolo[1,5-a]pyridin-2-amine] | 75.1 nM
10 | CN1CC[C@H](Oc2cnn(C)c2-c2ccn3nc(Nc4cnc(C(F)(F)F)cn4)cc3c2)C1 [Example 453, 5-[2-methyl-4-[(3S)-1-methylpyrrolidin-3-yl]oxy-pyrazol-3-yl]-N-[5-(trifluoromethyl)pyrazin-2-yl]pyrazolo[1,5-a]pyridin-2-amine] | 162 nM
11 | Cc1cnc(Nc2cc3cc(-c4c(O[C@H]5CCN(C)C5)cnn4C)ccn3n2)cn1 [Example 454, 5-[2-methyl-4-[(3S)-1-methylpyrrolidin-3-yl]oxy-pyrazol-3-yl]-N-(5-methylpyrazin-2-yl)pyrazolo[1,5-a]pyridin-2-amine] | 81.3 nM
12 | CN1CC[C@H](Oc2cnn(C)c2-c2ccn3nc(Nc4cc(C(F)(F)F)cnn4)cc3c2)C1 [Example 457, 5-[2-methyl-4-[(3S)-1-methylpyrrolidin-3-yl]oxy-pyrazol-3-yl]-N-[5-(trifluoromethyl)pyridazin-3-yl]pyrazolo[1,5-a]pyridin-2-amine] | 165 nM
13 | COCc1cc(Nc2cc3cc(-c4c(O[C@H]5CCN(C)C5)cnn4C)ccn3n2)ncn1 [Example 461, N-[6-(methoxymethyl)pyrimidin-4-yl]-5-[2-methyl-4-[(3S)-1-methylpyrrolidin-3-yl]oxy-pyrazol-3-yl]pyrazolo[1,5-a]pyridin-2-amine] | 72.4 nM
14 | CN1CC[C@H](Oc2cnn(C)c2-c2ccn3nc(Nc4ccc(C5CC5)nn4)cc3c2)C1 [Example 462, N-(6-cyclopropylpyridazin-3-yl)-5-[2-methyl-4-[(3S)-1-methylpyrrolidin-3-yl]oxy-pyrazol-3-yl]pyrazolo[1,5-a]pyridin-2-amine] | 86.5 nM
15 | Cn1ncc(COC2CCNCC2)c1-c1ccn2nc(NC(=O)C3CC3)cc2c1 [Example 463, N-[5-[2-methyl-4-(4-piperidyloxymethyl)pyrazol-3-yl]pyrazolo[1,5-a]pyridin-2-yl]cyclopropanecarboxamide] | 74.5 nM
16 | CN1CC[C@H](OCc2cnn(C)c2-c2ccn3nc(NC(=O)C4CC4)cc3c2)C1 [Example 464, N-[5-[2-methyl-4-[[(3S)-1-methylpyrrolidin-3-yl]oxymethyl]pyrazol-3-yl]pyrazolo[1,5-a]pyridin-2-yl]cyclopropanecarboxamide] | 82.8 nM
17 | CN1C[C@@H](F)[C@H](OCc2cnn(C)c2-c2ccn3nc(NC(=O)C4CC4)cc3c2)C1 [Example 467, N-[5-[4-[[(3R,4R)-4-fluoro-1-methyl-pyrrolidin-3-yl]oxymethyl]-2-methyl-pyrazol-3-yl]pyrazolo[1,5-a]pyridin-2-yl]cyclopropanecarboxamide] | 113 nM

Next, values leading:

Row | IC50 | SMILES
18 | 97 nM | Cn1ccc(CN2CC[C@@H]2COc2cnn(C)c2-c2ccn3nc(NC(=O)C4CC4)cc3c2)n1 [Example 430, N-[5-[2-methyl-4-[[(2R)-1-[(1-methylpyrazol-3-yl)methyl]azetidin-2-yl]methoxy]pyrazol-3-yl]pyrazolo[1,5-a]pyridin-2-yl]cyclopropanecarboxamide]
19 | 181 nM | Cn1ncc(OC[C@H]2CCN2CCOC(F)(F)F)c1-c1ccn2nc(NC(=O)C3CC3)cc2c1 [Example 431, N-[5-[2-methyl-4-[[(2R)-1-[2-(trifluoromethoxy)ethyl]azetidin-2-yl]methoxy]pyrazol-3-yl]pyrazolo[1,5-a]pyridin-2-yl]cyclopropanecarboxamide]
20 | 76.8 nM | CN1C[C@H]2C[C@H]2[C@@H]1COc1cnn(C)c1-c1ccn2nc(NC(=O)C3CC3)cc2c1 [Example 432, N-[5-[2-methyl-4-[[(1S,4R,5R)-3-methyl-3-azabicyclo[3.1.0]hexan-4-yl]methoxy]pyrazol-3-yl]pyrazolo[1,5-a]pyridin-2-yl]cyclopropanecarboxamide]
21 | 79 nM | Cn1ncc(OC[C@H]2CCN2c2ccccn2)c1-c1ccn2nc(NC(=O)C3CC3)cc2c1 [Example 436, N-[5-[2-methyl-4-[[(2R)-1-(2-pyridyl)azetidin-2-yl]methoxy]pyrazol-3-yl]pyrazolo[1,5-a]pyridin-2-yl]cyclopropanecarboxamide]
22 | 111 nM | Cc1cc(Nc2cc3cc(-c4c(OC[C@H]5C[C@H](C)CN5)cnn4C)ccn3n2)nc(C)n1 [Example 446, N-(2,6-dimethylpyrimidin-4-yl)-5-[2-methyl-4-[[(2R,4S)-4-methylpyrrolidin-2-yl]methoxy]pyrazol-3-yl]pyrazolo[1,5-a]pyridin-2-amine]
23 | 107 nM | Cc1ccc(Nc2cc3cc(-c4c(O[C@H]5CCN(C)C5)cnn4C)ccn3n2)cn1 [Example 451, 5-[2-methyl-4-[(3S)-1-methylpyrrolidin-3-yl]oxy-pyrazol-3-yl]-N-(6-methyl-3-pyridyl)pyrazolo[1,5-a]pyridin-2-amine]
24 | 135 nM | CN1CC[C@H](Oc2cnn(C)c2-c2ccn3nc(Nc4ccccn4)cc3c2)C1 [Example 452, 5-[2-methyl-4-[(3S)-1-methylpyrrolidin-3-yl]oxy-pyrazol-3-yl]-N-(2-pyridyl)pyrazolo[1,5-a]pyridin-2-amine]
25 | 137 nM | CN1CC[C@H](Oc2cnn(C)c2-c2ccn3nc(Nc4ccncn4)cc3c2)C1 [Example 455, 5-[2-methyl-4-[(3S)-1-methylpyrrolidin-3-yl]oxy-pyrazol-3-yl]-N-pyrimidin-4-yl-pyrazolo[1,5-a]pyridin-2-amine]
26 | 102 nM | Cc1nccc(Nc2cc3cc(-c4c(O[C@H]5CCN(C)C5)cnn4C)ccn3n2)n1 [Example 456, 5-[2-methyl-4-[(3S)-1-methylpyrrolidin-3-yl]oxy-pyrazol-3-yl]-N-(2-methylpyrimidin-4-yl)pyrazolo[1,5-a]pyridin-2-amine]
27 | 167 nM | CN1CC[C@H](Oc2cnn(C)c2-c2ccn3nc(Nc4ccnc(C(F)(F)F)n4)cc3c2)C1 [Example 458, 5-[2-methyl-4-[(3S)-1-methylpyrrolidin-3-yl]oxy-pyrazol-3-yl]-N-[2-(trifluoromethyl)pyrimidin-4-yl]pyrazolo[1,5-a]pyridin-2-amine]
28 | 145 nM | CN1CC[C@H](Oc2cnn(C)c2-c2ccn3nc(Nc4cc(C(F)(F)F)ncn4)cc3c2)C1 [Example 459, 5-[2-methyl-4-[(3S)-1-methylpyrrolidin-3-yl]oxy-pyrazol-3-yl]-N-[6-(trifluoromethyl)pyrimidin-4-yl]pyrazolo[1,5-a]pyridin-2-amine]
29 | 164 nM | CN1CC[C@H](Oc2cnn(C)c2-c2ccn3nc(Nc4cnc5c(ccn5C)c4)cc3c2)C1 [Example 460, 1-methyl-N-[5-[2-methyl-4-[(3S)-1-methylpyrrolidin-3-yl]oxy-pyrazol-3-yl]pyrazolo[1,5-a]pyridin-2-yl]pyrrolo[2,3-b]pyridin-5-amine]
30 | 80.7 nM | Cn1ncc(CO[C@@H]2CNC[C@H]2F)c1-c1ccn2nc(NC(=O)C3CC3)cc2c1 [Example 466, N-[5-[4-[[(3R,4R)-4-fluoropyrrolidin-3-yl]oxymethyl]-2-methyl-pyrazol-3-yl]pyrazolo[1,5-a]pyridin-2-yl]cyclopropanecarboxamide]
31 | 81.7 nM | CCC1(OCc2cnn(C)c2-c2ccn3nc(NC(=O)C4CC4)cc3c2)CN(C)C1 [Example 468, N-[5-[4-[(3-ethyl-1-methyl-azetidin-3-yl)oxymethyl]-2-methyl-pyrazol-3-yl]pyrazolo[1,5-a]pyridin-2-yl]cyclopropanecarboxamide]
